Entries after “also recorded” stand apart in the source; their conditions may differ.
What was measured:
[1] = system: non-small-cell lung cancer cell line A549; assay: MTT assay, human non-small-cell lung cancer cells; format: cell-based; details: concentrations in the range of 10^−7-10^−5 M or higher, FIGS. 3, 15
Excerpt: (§1) The anti-cancer activity of some of the compounds described herein have been tested in one type of such in vitro assay, as described in the examples herein, using a microculture assay with 3-(4,5-dimethylthiazol-2-yl)-2,5-diphenyltetrazolium bromide (“MTT”). This assay has an advantage over in vivo assay in that results are obtained within a week as opposed to several months. The assay can be carried out in 96-well microtiter plates. The MTT assay is based on the production of a dark blue formazan product by dehydrogenase in the mitochondria of live tumor cells after exposure to drug for 6 days [M. C. Alley, D. A. Scudiero, A. Monks, M. L. Hursey, M. J. Czerwinski, D. L. Fine, B. J. Abbout, J. G. Mayo, R. H. Shoemaker and M. R. Boyd, Cancer Res., 48, 589, 1988]. Thus, only live cells are stained and can be measured at 595 nm. Anti-cancer activity can be reported as percent of the tumor cell growth in the presence of compound at a defined dose compared to control/vehicle treated tumor cells. The results of some such screening assays are given in Examples 162a and 162b, and in FIGS. 2, 3, and 15-18.
(§2) The following human cancer cell lines were used to detect anti-cancer activity in the compounds of the invention.
The non-small-cell lung cancer cell line A549 was used to detect anti-lung cancer activity
(§3) Cell lines were purchased from American Type Culture Collection (ATCC).
(§4) The cancer cell cultures were grown as recommended by the ATTC manuals. A549 cells and BX-PC-3 were grown in DME Dulbecco's modified Eagle's medium containing 4500 mg/L glucose; 4 mM L-glutamine; 10 U/ml Pen-G; 10 mcg/ml […] and 10% fetal calf serum (FCS). PC-3 and MDA-MB468 cells were grown in RPMI medium 1640 containing 2 mM L-glutamine; 10 U/ml Pen-G; 10 mcg/ml Streptomycin and 10% FCS. Cells were kept at 6% CO2 and 37° C. Cells were seeded on day zero in 96-well format tissue culture plates at suitable densities the day before starting treatment, in the media indicated above.
(§5) On day one, the compounds of the invention were added to the culture media of growing cells, containing 10% FCS. The cell media contained the compounds of the invention at one of six concentrations: […], 5×10^−8, 1×10^−7, 5×10^−7, 1×10^−6, and 1×10^−5M. 0.1% DMSO was used as vehicle control, and never exceeded 0.1% final concentration. On day four the media was removed and replaced with fresh media containing the compounds of the invention and FCS.
(§6) The assay is based on the cleavage of the yellow tetrazolium salt MTT to purple formazan crystals by dehydrogenase activity in active mitochondria. This conversion only occurs in living cells with intact/functional mitochondria.
(§7) On day five 10 μl of 5 mg/ml MTT dye are added to each well containing a cell culture. Cells are incubated for additional 4 hours at 6% CO2 and 37° C. Reaction is then stopped by adding 100 μl/well of a solubilization solution consisting of 10% Sodium Dodecyl Sulfate (SDS) and 10 mM HCl On day 6 the formazan crystals formed are solubilized and the resulting colored solution is quantified using a scanning multiwell spectrophotometer at a wavelength of 595 nm.

[2] = system: pancreatic cancer cell line BX-PC-3; assay: MTT assay, human pancreatic cancer cells; format: cell-based; details: concentrations in the range of 10^−7-10^−5 M or higher, FIGS. 3, 18
Excerpt: as §1, §2
The pancreatic cancer cell line BX-PC-3 was used to detect anti-pancreatic cancer activity.
as §3, §4, §5, §6, §7

[3] = system: prostate cancer cell line PC-3; assay: MTT assay, human prostate cancer cells; format: cell-based; details: concentrations in the range of 10^−7-10^−5 M or higher, FIGS. 2, 16
Excerpt: as §1, §2
The prostate cancer cell line PC-3 was used to detect […]
as §3, §4, §5, §6, §7

[4] = system: breast cancer cell line MDA-MB468; assay: MTT assay, human breast cancer cells; format: cell-based; details: concentrations in the range of 10^−7-10^−5 M or higher, FIGS. 2, 17
Excerpt: as §1, §2
The breast cancer cell line MDA-MB468 served to detect anti-breast cancer activity.
as §3, §4, §5, §6, §7

tumor cells (PC3) = assay: Solid prostate cancer tumors in athymic nude mice, intraperitoneal treatment; format: in vivo; details: PC3 s.c. in athymic nude mice; i.p. every other day; compound 43 20mg/kg, compound 81 20mg/kg and 60mg/kg; FIGS. 20, 21
Protocol: (§8) Four to six week-old male athymic nude mice (Harlan) were housed under sterile conditions in a fixed 12-12-hr artificial light-dark cycle, and maintained on a standard rodent diet provided ad libitum. Animals were allowed two days to acclimate in this experimental environment prior to the initiation of the study.
(§9) Groups of animals were injected subcutaneously with tumor cells (H460 or PC3). Prior to the injection, the sterile tumor cells were at a logarithmic growth phase and were washed twice with PBS, counted and resuspended in sterile saline at 5-50 million cells per ml. As soon as solid tumors were discernible, the animals were sorted into treatment groups with equal average tumor volume. Animals were treated every other day intraperitoneally with a final volume of 5 ml/kg. Tumor volume was measured once a week for the duration of the study.
Experiment I: Treatment of solid prostate cancer tumors
Study 1—Treatment groups(n=6/group):

tumor cells (H460) = assay: Solid non-small-cell lung cancer tumors in athymic nude mice, intraperitoneal treatment; format: in vivo; details: H460 s.c. in athymic nude mice, i.p. every other day, compound 81 20mg/kg, FIG. 22
Protocol: as §8, §9
Experiment II: Treatment of solid non-small-cell lung cancer tumors

Row | SMILES | anticancer cell activity / killing of non-small-cell lung cancer cells [1] | anticancer cell activity / killing of pancreatic cancer cells [2] | melting point | anticancer cell activity / killing of prostate cancer cells [3] | anticancer cell activity / killing of breast cancer cells [4] | growth of solid human prostate cancer tumors (tumor cells (PC3)) | growth of non-small cell lung cancer tumors (tumor cells (H460))
1 | O=C1N=C(N2CCOCC2)S/C1=C\c1cccc(-c2cc(F)c(O)c(C34CC5CC(CC(C5)C3)C4)c2)c1 [Compound 1, 5-[3-(3-Adamantan-1-yl-4-hydroxy-5-fluoro-phenyl)benzylidene]-2-morpholin-4-yl-thiazol-4-one] | kill significant percentages of the cells; also recorded: strong anticancer all activity | kill significant percentages of the cells; also recorded: strong anticancer all activity | 293 to 295 °C | kill significant percentages of the cells; also recorded: strong anticancer cell activity | kill significant percentages of the cells; also recorded: strong anticancer cell activity |  | 
2 | O=C1N=C(N2CCOCC2)SC1Cc1cccc(-c2cc(F)c(O)c(C34CC5CC(CC(C5)C3)C4)c2)c1 (stereo not drawn) [Compound 43, 5-[3-(3-Adamantan-1-yl-4-hydroxy-5-fluoro-phenyl)benzyl]-2-morpholin-4-yl-thiazol-4-one] | kill significant percentages of the cells; also recorded: strong anticancer all activity | kill significant percentages of the cells; also recorded: strong anticancer all activity | 227 to 229 °C | kill significant percentages of the cells; also recorded: strong anticancer cell activity | kill significant percentages of the cells; also recorded: strong anticancer cell activity | significantly retarded the growth; also recorded: significantly slowed the growth | 
3 | O=C1N=C(N2CCCC2)SC1Cc1cccc(-c2cc(F)c(O)c(C34CC5CC(CC(C5)C3)C4)c2)c1 (stereo not drawn) [Compound 81] | kill significant percentages of the cells | kill significant percentages of the cells | 152 to 154 °C | kill significant percentages of the cells | kill significant percentages of the cells | significantly retarded the growth; also recorded: significantly slowed the growth | significantly retarded the growth; also recorded: significantly slowed the growth
4 | COc1cc(-c2ccc(O)c(C34CC5CC(CC(C5)C3)C4)c2)cc(/C=C2\SC(N3CCOCC3)=NC2=O)c1O [Compound 84, 5-[3-(3-Adamantan-1-yl-4-hydroxy-phenyl)-5-methoxy-6-hydroxy-benzylidene]-2-morpholin-4-yl-thiazol-4-one] | kill significant percentages of the cells | kill significant percentages of the cells | 310 to 312 °C | kill significant percentages of the cells | kill significant percentages of the cells |  | 
5 | O=C1N=C(N2CCOCC2)S/C1=C\c1cc(-c2ccc(O)c(C34CC5CC(CC(C5)C3)C4)c2)c(O)cc1O [Compound 104, 5-[3-(3-Adamantan-1-yl-4-hydroxy-phenyl)-4,6-dihydroxy-benzylidene]-2-morpholin-4yl-thiazol-4-one] |  |  | 306 to 310 °C |  |  |  | 
6 | O=C1N=C(N2CCC2)S/C1=C\c1cccc(-c2cc(F)c(O)c(C34CC5CC(CC(C5)C3)C4)c2)c1 [Compound 108] |  |  | 154 to 157 °C |  |  |  | 
7 | O=C1N=C(N2CCOCC2)SC1Cc1cccc(-c2ccc(O)c(C34CC5CC(CC(C5)C3)C4)c2)c1 (stereo not drawn) [Compound 135, 5-(3′-Adamantan-1-yl-4′-hydroxy-biphenyl-3-ylmethyl)-2-morpholin-4-yl-thiazol-4-one] | kill significant percentages of the cells | kill significant percentages of the cells |  | kill significant percentages of the cells | kill significant percentages of the cells |  | 
8 | CCC(C)(C)c1cc(-c2cccc(CC3SC(N4CCOCC4)=NC3=O)c2)ccc1O (stereo not drawn) [Compound 151, 5-[3′-(1,1-Dimethyl-propyl)-4′-hydroxy-biphenyl-3-ylmethyl]-2-morpholin-4-yl-thiazol-4-one] | kill significant percentages of the cells | kill significant percentages of the cells | 74 to 77 °C | kill significant percentages of the cells | kill significant percentages of the cells |  | 
9 | CCC(C)(C)c1cc(-c2ccc(F)c(/C=C3\SC(N4CCOCC4)=NC3=O)c2)ccc1O [Compound 152, 5-[3′-(1,1-Dimethyl-propyl)-4-fluoro-4′-hydroxy-biphenyl-3-ylmethylene]-2-morpholin-4-yl-thiazol-4one] | kill significant percentages of the cells | kill significant percentages of the cells |  | kill significant percentages of the cells | kill significant percentages of the cells |  | 
10 | CCC(C)(C)c1cc(-c2cccc(CC3SC(N4CCOCC4)=NC3=O)n2)ccc1O (stereo not drawn) [Compound 155, 5-{6-[3-(1,1-Dimethyl-propyl)-4-hydroxy-phenyl]-pyridin-2ylmethyl}--2-morpholin-4-yl-thiazol-4-one] | kill significant percentages of the cells | kill significant percentages of the cells |  | kill significant percentages of the cells | kill significant percentages of the cells |  | 

— patent US20040097566A1, “2-Substituted thiazolidinone and oxazolidinone derivatives for the inhibition of phosphatases and the treatment of cancer” (priority 2001, published 2004)
